We go through 14 compounds from PubChem BioAssay (NCI).

What all share (assay): inhibition of tumour cell growth, NCI panel, 48 h
Assay [1] concerns COLO 205 colon.
Assay [2] has as its system PC-3 prostate.
The test system of assay [3] is OVCAR-8 ovarian.
In assay [4] the test system is HCT-15 colon.
The subject of assay [5] is SF-295 CNS.
Assay [6] has as its system LOX IMVI melanoma.
Assay [7] has as its system T-47D breast.
In assay [8] the test system is OVCAR-5 ovarian.
The subject of assay [9] is HCT-116 colon.

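96-well plates; 48 h exposure; 5 concentrations. Endpoints by linear interpolation between flanking doses. Not reached: highest tested concentration assigned. TGI marks complete inhibition of growth.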 Where a SMILES comes first, the peptide text is derived from it. Bridges are numbered along the chain shown (N, C = ends). Where only a bound is given, the exact number is not on record here.

As for `COc1ccc(N=C(C)C(C)=Nc2ccc(OC)cc2)cc1`, the TGI in assay [1] was 37.1 µM; in assay [2], over 100 µM; in [3], over 100 µM; in assay [4], over 100 µM; in assay [5], over 100 µM; in [6], over 100 µM. The TGI in assay [7], in [8] and in [9] was over 100 µM in each case.

On to `CC(=O)N1CCOC12N=NC(C)(C)O2` (stereo unspecified), for which the TGI in assay [1], in [2], in [3], in assay [4], in [5] and in assay [6] was over 100 µM each time. Moreover, the TGI in assay [7], in assay [8] and in assay [9] was over 100 µM in each case.

As for `C[C@@H]([C@H]1CC[C@@]2(C)[C@@H]3CC[C@@H]4C(=CC3=CC[C@]12C)CC[C@H](N(C)C)C4(C)C)N(C)C`, the TGI in assay [1], in assay [2], in assay [3], in [4], in [5] and in [6] was over 100 µM in each case. Further, the TGI in assay [7], in assay [8] and in assay [9] was over 100 µM in each case.

Take `Nc1ccnc2c1ncn2[C@H]1C[C@H](O)[C@@H](CO)O1`: the TGI in assay [1], in [2], in assay [3], in [4], in assay [5] and in [6] was over 100 µM in each case. Also, the TGI in assay [7], in [8] and in [9] was over 100 µM in each case.

Take `COC(=O)C1CCC(=O)NCCCCC(NC(=O)C(N)CC(=O)O)C(=O)N1` (stereo not drawn) (H-Asp-Lys-Glu-OMe; lactam 2-3; configuration not given here): the TGI in [1], in assay [2], in [3], in assay [4], in [5] and in [6] was over 100 µM in each case. Moreover, the TGI in assay [7], in assay [8] and in assay [9] was over 100 µM throughout.

As for `COc1ccc(C2C3=C(COC3=O)Oc3cc4c(cc32)OCO4)cc1OC` (stereo unspecified), the TGI in assay [1] is 18.1 µM; in assay [2], over 31.3 µM; in [3] it was over 43.3 µM; in assay [4], over 100 µM; in assay [5], 24 µM; in assay [6], over 100 µM. The TGI in assay [7] was over 100 µM; in assay [8] it was over 100 µM; in assay [9], over 86.1 µM.

As to `CCOC(=O)C1=C(N2CCCC2)C(=O)C(C(=O)OCC)C1` (stereo unspecified), the TGI in assay [1], in assay [2], in [3], in assay [4], in [5] and in assay [6] was over 100 µM each time. Also, the TGI in assay [7], in assay [8] and in [9] was over 100 µM throughout.

With `CCOC(=O)/C=C(/C(=O)OCC)n1cc(C)c(=O)n(Cc2cn(CCCCOC(C)=O)nn2)c1=O`, the TGI in [1] is over 100 µM; in assay [2], 40.3 µM; in assay [3], 25.8 µM; in assay [4] it was over 100 µM; in assay [5], over 100 µM; in assay [6], 49.5 µM. Besides, the TGI in assay [7] was over 100 µM; in assay [8] it was 41 µM; in assay [9] it was 65 µM.

Turning to `C[C@H](CCc1nc(C#N)c(N)o1)[C@H]1CC[C@H]2[C@@H]3CCC4C[C@@H](O)CC[C@]4(C)[C@H]3C[C@@H](O)[C@]12C` (stereo partly specified), the TGI stood at 31.2 µM in assay [1]; 16.3 µM in assay [2]; 20.3 µM in assay [3]; 29.5 µM in assay [4]; 30.5 µM in assay [5]; 23.8 µM in [6]. Moreover, the TGI in [7] came to 30.3 µM; in [8] it was 35.1 µM; in assay [9], 26.4 µM.

On to `O=C(NNC(=O)c1ccc(Cl)cc1NC(=O)C12CC3CC(CC(C3)C1)C2)c1ccc(Cl)cc1`, for which the TGI is 27.6 µM in [1]; 82.4 µM in [2]; over 100 µM in assay [3]; 35.9 µM in assay [4]; 57 µM in assay [5]; 37.7 µM in assay [6]. Moreover, the TGI in [7] was over 100 µM; in [8] it was 74.4 µM; in assay [9], 58.1 µM.

Regarding `C[C@H](NC(=O)C(C)(Cc1ccc(O)cn1)NC(=O)c1ccccc1)c1ccccc1` (stereo partly specified), the TGI in assay [1], in assay [2], in assay [3], in assay [4], in assay [5] and in assay [6] was over 100 µM each time. For the same compound, the TGI in [7], in assay [8] and in [9] was over 100 µM in each case.

As for `O=C1CC(c2cccc([N+](=O)[O-])c2)C2(C(=O)NC(=S)NC2=O)C(c2cccc([N+](=O)[O-])c2)C1` (stereo unspecified), the TGI in [1] was over 100 µM; in assay [2], over 100 µM; in [3] it was 43.6 µM; in [4], over 100 µM; in assay [5] it was over 100 µM; in assay [6] it was 34 µM. Moreover, the TGI in [7] is over 100 µM; in assay [8] it was over 100 µM; in assay [9] it was 43.7 µM.

Take `Cc1c(C(=O)O)sc2nc[nH]c(=O)c12`: the TGI in assay [1], in [2], in assay [3], in [4], in assay [5] and in assay [6] was over 100 µM each time. In addition, the TGI in [7], in assay [8] and in assay [9] was over 100 µM throughout.

On to `CC(C)=CCNc1ncnc2c1ncn2CCC(=O)O`, for which the TGI in assay [1], in assay [2], in [3], in [4], in [5] and in assay [6] was over 100 µM in each case. The TGI in assay [7], in assay [8] and in assay [9] was over 100 µM each time.
